According to ChEMBL document CHEMBL3885861, “Open TG-GATES”:

Organism: Rattus norvegicus
Assay: Open TG-GATES - Regimen: Daily Repeat
Assay type: toxicity, organism-based, Sprague-Dawley
Set-up: regimen Daily Repeat, gender Male, age 6 weeks
Conditions: in vivo, po, route gavage; for APTT / Bas / Eos / Fbg / Hb / Ht / Lym / MCH / MCHC / MCV / Mono / Neu / PT / Plat / RBC / Ret / WBC: tissue Blood; for KIDNEY_L / KIDNEY_R / KIDNEY_TOTAL: tissue Kidney; for LIVER: tissue Liver; for A/G / ALP / ALT / AST / BUN / CRE / Ca / Cl / DBIL / GLC / IP / K / LDH / Na / PL / RALB / TBIL / TC / TG / TP / gamma-GTP: tissue Plasma
[1] = 0 mg/kg, 72 h, dose level Control, time 3 day
[2] = 0 mg/kg, […], dose level Control, time 7 day
[3] = 0 mg/kg, […], dose level Control, time 14 day
[4] = 0 mg/kg, […], dose level Control, time 28 day
[5] = 3 mg/kg, 72 h, dose level Low, time 3 day
[6] = 3 mg/kg, […], dose level Low, time 7 day
[7] = 3 mg/kg, […], dose level Low, time 14 day
[8] = 3 mg/kg, […], dose level Low, time 28 day

## C[C@H]1C(=O)O[C@@H]2CCN3CC=C(COC(=O)[C@](C)(O)[C@]1(C)O)[C@H]23 [MONOCROTALINE]
[1]
  TERMINAL_BW: 230.9 g
  APTT: 21.2 s
  Bas: 0%
  Eos: 0.6%
  Fbg: 311.8 mg/dL
  Hb: 13.5 g/dL
  Ht: 39.5%
  Lym: 83.8%
  MCH: 21.5 pg
  MCHC: 34.3%
  MCV: 62.6 fL
  Mono: 2%
  Neu: 12.4%
  PT: 15.8 s
  Plat: 119.6 x10_4/uL
  RBC: 631.2 x10_4/ul
  Ret: 6.9%
  WBC: 91.2 x10_2/uL
  KIDNEY_L: 1 g
  KIDNEY_R: 1 g
  KIDNEY_TOTAL: 2.1 g
  LIVER: 11 g
  A/G: 1.2
  ALP: 1771.6 IU/L
  ALT: 40.2 IU/L
  AST: 70 IU/L
  BUN: 18.2 mg/dL
  CRE: 0.2 mg/dL
  Ca: 10.6 mg/dL
  Cl: 105.6 meq/L
  DBIL: 0.004 mg/dL
  GLC: 191.4 mg/dL
  IP: 6.9 mg/dL
  K: 4.6 meq/L
  LDH: 222.4 IU/L
  Na: 142.2 meq/L
  PL: 164 mg/dL
  RALB: 3.1 g/dL
  TBIL: 0.008 mg/dL
  TC: 83.8 mg/dL
  TG: 119 mg/dL
  TP: 5.6 g/dL
  gamma-GTP: 1.2 IU/L
[2]
  TERMINAL_BW: 267 g
  APTT: 21 s
  Bas: 0%
  Eos: 0.8%
  Fbg: 309.8 mg/dL
  Hb: 13.3 g/dL
  Ht: 38.4%
  Lym: 80.6%
  MCH: 20.8 pg
  MCHC: 34.7%
  MCV: 60.2 fL
  Mono: 2.6%
  Neu: 15.2%
  PT: 16.6 s
  Plat: 111.7 x10_4/uL
  RBC: 638.2 x10_4/ul
  Ret: 6.1%
  WBC: 108.8 x10_2/uL
  KIDNEY_L: 1.1 g
  KIDNEY_R: 1.1 g
  KIDNEY_TOTAL: 2.2 g
  LIVER: 12.7 g
  A/G: 1.2
  ALP: 1469.6 IU/L
  ALT: 37.8 IU/L
  AST: 65 IU/L
  BUN: 18 mg/dL
  CRE: 0.2 mg/dL
  Ca: 10.7 mg/dL
  Cl: 105.4 meq/L
  DBIL: 0 mg/dL
  GLC: 187 mg/dL
  IP: 7 mg/dL
  K: 4.3 meq/L
  LDH: 182.2 IU/L
  Na: 142.4 meq/L
  PL: 156.2 mg/dL
  RALB: 3.1 g/dL
  TBIL: 0.002 mg/dL
  TC: 79.6 mg/dL
  TG: 111 mg/dL
  TP: 5.6 g/dL
  gamma-GTP: 1 IU/L
[3]
  TERMINAL_BW: 315.5 g
  APTT: 20.5 s
  Bas: 0%
  Eos: 1%
  Fbg: 323.2 mg/dL
  Hb: 14.1 g/dL
  Ht: 39.6%
  Lym: 78.4%
  MCH: 20.7 pg
  MCHC: 35.6%
  MCV: 58.1 fL
  Mono: 2.8%
  Neu: 16.8%
  PT: 16.7 s
  Plat: 104.7 x10_4/uL
  RBC: 681.6 x10_4/ul
  Ret: 4.5%
  WBC: 124 x10_2/uL
  KIDNEY_L: 1.3 g
  KIDNEY_R: 1.3 g
  KIDNEY_TOTAL: 2.5 g
  LIVER: 13.3 g
  A/G: 1.2
  ALP: 1565.6 IU/L
  ALT: 36 IU/L
  AST: 68.6 IU/L
  BUN: 19.4 mg/dL
  CRE: 0.2 mg/dL
  Ca: 10.8 mg/dL
  Cl: 105.6 meq/L
  DBIL: 0.002 mg/dL
  GLC: 194 mg/dL
  IP: 6.6 mg/dL
  K: 4.3 meq/L
  LDH: 217 IU/L
  Na: 142.4 meq/L
  PL: 144 mg/dL
  RALB: 3.2 g/dL
  TBIL: 0 mg/dL
  TC: 66.6 mg/dL
  TG: 148 mg/dL
  TP: 5.9 g/dL
  gamma-GTP: 1.6 IU/L
[4]
  TERMINAL_BW: 368.8 g
  APTT: 22.4 s
  Bas: 0%
  Eos: 1.2%
  Fbg: 314.2 mg/dL
  Hb: 14.7 g/dL
  Ht: 40.6%
  Lym: 82.2%
  MCH: 19.7 pg
  MCHC: 36.1%
  MCV: 54.6 fL
  Mono: 2%
  Neu: 13.6%
  PT: 16 s
  Plat: 102 x10_4/uL
  RBC: 744.4 x10_4/ul
  Ret: 2.6%
  WBC: 110.5 x10_2/uL
  KIDNEY_L: 1.3 g
  KIDNEY_R: 1.4 g
  KIDNEY_TOTAL: 2.7 g
  LIVER: 14.7 g
  A/G: 1.1
  ALP: 1093.2 IU/L
  ALT: 53 IU/L
  AST: 79.6 IU/L
  BUN: 18.8 mg/dL
  CRE: 0.2 mg/dL
  Ca: 10.6 mg/dL
  Cl: 106.8 meq/L
  DBIL: 0 mg/dL
  GLC: 190.2 mg/dL
  IP: 6.3 mg/dL
  K: 4.1 meq/L
  LDH: 176.4 IU/L
  Na: 141.8 meq/L
  PL: 152.6 mg/dL
  RALB: 3.2 g/dL
  TBIL: 0.01 mg/dL
  TC: 74 mg/dL
  TG: 160.4 mg/dL
  TP: 6 g/dL
  gamma-GTP: 1 IU/L
[5]
  TERMINAL_BW: 234.1 g
  APTT: 21.2 s
  Bas: 0%
  Eos: 0.8%
  Fbg: 311.8 mg/dL
  Hb: 13.5 g/dL
  Ht: 39.5%
  Lym: 80.2%
  MCH: 20.8 pg
  MCHC: 34%
  MCV: 61.2 fL
  Mono: 2%
  Neu: 16.2%
  PT: 15.9 s
  Plat: 130.1 x10_4/uL
  RBC: 646.2 x10_4/ul
  Ret: 7.1%
  WBC: 122.6 x10_2/uL
  KIDNEY_L: 1 g
  KIDNEY_R: 1 g
  KIDNEY_TOTAL: 2 g
  LIVER: 10.8 g
  A/G: 1.2
  ALP: 1957.6 IU/L
  ALT: 43.6 IU/L
  AST: 74.6 IU/L
  BUN: 16.4 mg/dL
  CRE: 0.1 mg/dL
  Ca: 10.7 mg/dL
  Cl: 106 meq/L
  DBIL: 0.002 mg/dL
  GLC: 187.2 mg/dL
  IP: 6.9 mg/dL
  K: 4.4 meq/L
  LDH: 267.2 IU/L
  Na: 142.8 meq/L
  PL: 154 mg/dL
  RALB: 3.2 g/dL
  TBIL: 0.014 mg/dL
  TC: 83.8 mg/dL
  TG: 104 mg/dL
  TP: 5.7 g/dL
  gamma-GTP: 1.2 IU/L
[6]
  TERMINAL_BW: 266.3 g
  APTT: 22.4 s
  Bas: 0%
  Eos: 0.8%
  Fbg: 328.2 mg/dL
  Hb: 13.9 g/dL
  Ht: 39.9%
  Lym: 80.4%
  MCH: 21.1 pg
  MCHC: 34.8%
  MCV: 60.5 fL
  Mono: 2.4%
  Neu: 15.2%
  PT: 16.2 s
  Plat: 119.7 x10_4/uL
  RBC: 659.4 x10_4/ul
  Ret: 5.7%
  WBC: 105.4 x10_2/uL
  KIDNEY_L: 1.1 g
  KIDNEY_R: 1.2 g
  KIDNEY_TOTAL: 2.3 g
  LIVER: 12.4 g
  A/G: 1.1
  ALP: 1693.8 IU/L
  ALT: 43.2 IU/L
  AST: 75 IU/L
  BUN: 17 mg/dL
  CRE: 0.2 mg/dL
  Ca: 10.7 mg/dL
  Cl: 105.6 meq/L
  DBIL: 0 mg/dL
  GLC: 187 mg/dL
  IP: 7 mg/dL
  K: 4.2 meq/L
  LDH: 248 IU/L
  Na: 142.6 meq/L
  PL: 151.6 mg/dL
  RALB: 3.1 g/dL
  TBIL: 0.008 mg/dL
  TC: 80.8 mg/dL
  TG: 121.8 mg/dL
  TP: 5.8 g/dL
  gamma-GTP: 1.2 IU/L
[7]
  TERMINAL_BW: 294.8 g
  APTT: 20.2 s
  Bas: 0%
  Eos: 0.4%
  Fbg: 413 mg/dL
  Hb: 14.3 g/dL
  Ht: 40.6%
  Lym: 81.6%
  MCH: 20.1 pg
  MCHC: 35%
  MCV: 57.4 fL
  Mono: 3.8%
  Neu: 12.8%
  PT: 16 s
  Plat: 120.5 x10_4/uL
  RBC: 708 x10_4/ul
  Ret: 3.3%
  WBC: 187.2 x10_2/uL
  KIDNEY_L: 1.2 g
  KIDNEY_R: 1.2 g
  KIDNEY_TOTAL: 2.4 g
  LIVER: 13.6 g
  A/G: 1
[8]
  TERMINAL_BW: 359.6 g
  APTT: 23 s
  Bas: 0%
  Eos: 0.8%
  Fbg: 332.8 mg/dL
  Hb: 14.1 g/dL
  Ht: 40.2%
  Lym: 84.2%
  MCH: 19 pg
  MCHC: 35.1%
  MCV: 54 fL
  Mono: 1.8%
  Neu: 12.4%
  PT: 15.4 s
  Plat: 102.5 x10_4/uL
  RBC: 745.6 x10_4/ul
  Ret: 4.2%
  WBC: 146.6 x10_2/uL
  KIDNEY_L: 1.3 g
  KIDNEY_R: 1.3 g
  KIDNEY_TOTAL: 2.6 g
  LIVER: 17.2 g
